Data reported in patent US20100227841A1, “Patient populations and treatment methods” (Harbor BioSciencs, Inc., priority 2008, published 2010).

Test system: female NOD mice
Experiment: Spontaneous autoimmune diabetes in non-obese diabetic (NOD) mouse model
Type: in vivo
Source text: Treatment of spontaneous autoimmune diabetes in non-obese diabetic (NOD) mouse model. The NOD model is used as an animal model for human type 1 diabetes. The NOD mouse strain spontaneously develops autoimmune (type 1) diabetes by a process that has similarities to human type 1 diabetes mellitus, e.g., immune-mediated selective destruction of the pancreatic islet 13-cells that produce insulin (M. A. Atkinson and N. K. Maclaren, New England J. Medicine, 331:1428-1436 1994). There is a higher incidence of diabetes (i.e., hyperglycemia, glucosuria, and hypoinsulinemia) in female vs. male NOD mice (80-90% vs. 10-20%, respectively). Disease incidence in this animal model is first observed at approximately 12 to 15 weeks of age with maximum incidence usually peaking 5 to 6 weeks later.
Methods. An oral formulation containing 17α-ethynylandrost-5-ene-3β,7β,17β-triol in 30% w/v β-cyclodextrin sulfobutyl ether sodium salt (Captisol®; CyDex, Inc., Overland Park, Kans.) was used. Six-week old female NOD mice (approximately 20-25 grams) were purchased from The Jackson Laboratories (Bar Harbor, Me.) and housed in a vivarium under pathogen-free conditions. The animals were acclimated for at least one week prior to initiation of oral dosing with 17α-ethynylandrost-5-ene-3β,7β,17β-triol. Animals were randomized into 5 per cage upon receipt and cages were subsequently randomized into dosing groups.
Female NOD mice were treated once daily with vehicle, 17α-ethynylandrost-5-ene-3β,7β,17β-triol (20 or 80 mg/kg in 100 μL, p.o.), or dexamethasone (0.25 mg/kg, 100 μL, i.p.) from 15 to 25 weeks of age (i.e., before the first incidence of diabetes; at the University of Catania), from 13 to 19 weeks of age (2 days after the first incidence of diabetes), or from 12 to 26 weeks of age (9 days after the first incidence of diabetes). Blood glucose was monitored using glucometers (ENCORE Glucometer, Bayer Corp., Elkhart, Ind.) at weekly intervals, beginning at 10 weeks of age. Mice with blood glucose levels 200 mg/dL on two consecutive occasions were considered diabetic. The percentage of animals with diabetes over the course of the experiment was monitored.
Histological assessment of insulitis and functional 13-cell content was assessed at the time of disease diagnosis or at the end of the 26-week study (i.e., disease-free mice). Pancreata (after CO2 euthanasia) were immediately isolated and placed in 10% buffered formalin at room temperature overnight, and then embedded in paraffin. After de-paraffinizing, pancreas samples were rehydrated and 5 μm sections were prepared and fixed on glass slides. Some sections were stained with hematoxylin and eosin (H&E) while others were stained with anti-insulin antibody as follows; prepared sections were immersed in Tris-Buffered Saline (TBS: 10 mM Tris buffer, pH 7.4, 0.15 M NaCl) containing 1% of bovine serum albumin (BSA) and 5% normal goat serum for 2 h at room temperature followed by incubation with 2 μg/mL rat anti-insulin IgG2a monoclonal antibody (MAB1417; R&D Systems, Minneapolis, Minn.) in TBS/1% BSA overnight at 4° C. in a humidified chamber. After washing with TBS/0.5 Tween-20, sections were covered with biotinylated anti-rat IgG secondary antibody (BD biosciences, 1:1,000) for 1 h at room temperature, followed by washing with TBS/Tween-20 and incubation with streptavidin-horseradish peroxidase for 30 min. Sections were then incubated with chromogen substrate, DAB (BD Biosciences), for 5 min and counterstained with hematoxylin. The degree of insulitis (leukocyte infiltration per islet; H&E) and functional 13-cell content per islet (insulin production) was scored using a scale of 0 to 3 in which 0=none, 1=few, 2=moderate, 3=high content of inflammatory cells or functional β-cells. Pancreata that were scored were obtained from a randomly-selected portion of mice from each cohort and scores were reported as the mean±SEM for each cohort.

[1] = dexamethasone 0.25 mg/kg i.p. once daily
[2] = dexamethasone 0.25 mg/kg i.p. once daily, scale of 0 to 3

## C[C@@H]1C[C@H]2[C@@H]3CCC4=CC(=O)C=C[C@]4(C)[C@@]3(F)[C@@H](O)C[C@]2(C)[C@@]1(O)C(=O)CO [dexamethasone, reference compound]
[1]
  Disease Incidence: 0.20 ± 0.20
  No. Islets/pancreas (H&E): 8.2 ± 6.3
[2]
  Insulitis Score/Islet (H&E): 2.0 ± 0.6
  β-Cell Score/Islet (Insulin): 2.3 ± 0.3
Week 19, once daily treatment from 15 to 25 weeks of age (vehicle 25%)
  first incidence of diabetes: 0%
